Data: patent US20100113421A1, “NON-NUCLEOSIDE REVERSE TRANSCRIPTASE INHIBITORS” (priority 2006, published 2010)

System: HIV strain containing the Y181C mutation
Test: Spread assay, Y181C mutant strain
Format: cell-based
Conditions: Human immunodeficiency virus 1; spread assay, 10% FBS, Y181C mutant strain; read-out: CIC95
Protocol: Assays for the inhibition of acute HIV-1 infection of T-lymphoid cells (alternatively referred to herein as the “spread assay”) were conducted in accordance with Vacca, J. P. et al., Proc. Natl. Acad. Sci. USA 1994, 91: 4096. The assays (using 10% FBS) tested for inhibition of wild type HIV-1 and of HIV strains containing the Y181C or K103N mutation. […] (Note that the compound of Example 6 was tested only up to a 833 nM concentration and the CIC95 value was determined to be >833 nM. The compound of Example 78 was not tested in the Y1818C assay.) The compounds of Examples 1 to 119 (including Examples 70A and 70B) had CIC95 values of less than 1000 nanomolar in the assay employing the K103N mutant strain. In an analogous assay employing a mutant strain containing both the K103N and Y181C mutations, the compounds of Examples 70A, 70B and 78-115 had CIC95 values of less than 1000 nanomolar.

Structure (SMILES)	IC95 [µM]
Cc1c(C(=O)N(C)Cc2ccc3ncccc3c2)[nH]c(C(N)=O)c1S(=O)(=O)c1cc(F)cc(Cl)c1 [Example 51, 4-[(3-chloro-5-fluorophenyl)sulfonyl]-N,3-dimethyl-N-(6-quinolinylmethyl)-1H-pyrrole-2,5-dicarboxamide]	< 8
Cc1c(C(=O)N(C)Cc2ccc3ncccc3c2Cl)[nH]c(C(N)=O)c1S(=O)(=O)c1cc(F)cc(Cl)c1 [Example 52, 4-[(3-chloro-5-fluorophenyl)sulfonyl]-N-[(5-chloro-6-quinolinyl)methyl]-N,3-dimethyl-1H-pyrrole-2,5-dicarboxamide]	< 8
Cc1c(C(=O)N(C)Cc2cc3cccnc3cc2Cl)[nH]c(C(N)=O)c1S(=O)(=O)c1cc(F)cc(Cl)c1 [Example 53, 4-[(3-chloro-5-fluorophenyl)sulfonyl]-N-[(7-chloro-6-quinolinyl)methyl]-N,3-dimethyl-1H-pyrrole-2,5-dicarboxamide]	< 8
Cc1c(C(=O)N(C)Cc2ccc3ncccc3c2)[nH]c(C(N)=O)c1S(=O)(=O)c1cc(Cl)cc(Cl)c1 [Example 54, 4-[(3,5-dichlorophenyl)sulfonyl]-N,3-dimethyl-N-(6-quinolinylmethyl)-1H-pyrrole-2,5-dicarboxamide]	< 8
Cc1c(C(=O)N(C)Cc2ccc3ncccc3c2Cl)[nH]c(C(N)=O)c1S(=O)(=O)c1cc(Cl)cc(Cl)c1 [Example 55, N-[(5-chloro-6-quinolinyl)methyl]-4-[(3,5-dichlorophenyl)sulfonyl]-N,3-dimethyl-1H-pyrrole-2,5-dicarboxamide]	< 8
Cc1c(C(=O)N(C)Cc2cc3cccnc3cc2Cl)[nH]c(C(N)=O)c1S(=O)(=O)c1cc(Cl)cc(Cl)c1 [Example 56, N-[(7-chloro-6-quinolinyl)methyl]-4-[(3,5-dichlorophenyl)sulfonyl]-N,3-dimethyl-1H-pyrrole-2,5-dicarboxamide]	< 8
Cc1c(C(=O)N(C)Cc2ccc3ncccc3c2)[nH]c(C(N)=O)c1S(=O)(=O)c1cc(Cl)cc(C#N)c1 [Example 57]	< 8
CC(C)c1c(C(=O)N(C)Cc2ccccc2)[nH]c(C(N)=O)c1S(=O)(=O)c1ccccc1 [Example 58, N-Benzyl-3-isopropyl-N-methyl-4-(phenylsulfonyl)-1H-pyrrole-2,5-dicarboxamide]	< 8
CCc1c(C(=O)N(C)Cc2ccc(Cl)cc2Cl)[nH]c(C(N)=O)c1S(=O)(=O)c1ccccc1 [Example 59, N-(2,4-dichlorobenzyl)-3-ethyl-N-methyl-4-(phenylsulfonyl)-1H-pyrrole-2,5-dicarboxamide]	< 8
CCc1c(C(=O)N(C)Cc2ccc3ncccc3c2)[nH]c(C(N)=O)c1S(=O)(=O)c1ccccc1 [Example 60, 3-ethyl-N-methyl-4-(phenylsulfonyl)-N-(6-quinolinylmethyl)-1H-pyrrole-2,5-dicarboxamide]	< 8
CC(C)c1c(C(=O)N(C)Cc2ccccc2F)[nH]c(C(N)=O)c1S(=O)(=O)c1ccccc1 [Example 61, N-(2-fluorobenzyl)-3-isopropyl-N-methyl-4-(phenylsulfonyl)-1H-pyrrole-2,5-dicarboxamide]	< 8
CC(C)c1c(C(=O)N(C)Cc2ccc(Cl)cc2F)[nH]c(C(N)=O)c1S(=O)(=O)c1ccccc1 [Example 62, N-(4-chloro-2-fluorobenzyl)-3-isopropyl-N-methyl-4-(phenylsulfonyl)-1H-pyrrole-2,5-dicarboxamide]	< 8
CC(C)c1c(C(=O)N(C)Cc2ccc(Cl)cc2Cl)[nH]c(C(N)=O)c1S(=O)(=O)c1ccccc1 [Example 63, N-(2,4-dichlorobenzyl)-3-isopropyl-N-methyl-4-(phenylsulfonyl)-1H-pyrrole-2,5-dicarboxamide]	< 8
CC(C)c1c(C(=O)N(C)Cc2ccc3ncccc3c2)[nH]c(C(N)=O)c1S(=O)(=O)c1ccccc1 [Example 64, 3-isopropyl-N-methyl-4-(phenylsulfonyl)-N-(6-quinolinylmethyl)-1H-pyrrole-2,5-dicarboxamide]	< 8
